Data published in patent US7446091B2, “Methods and preparations for curing clinically ill patients” (Novo Nordisk A/S, priority 2000, dated 2008).

Tested on: mechanically ventilated, adult patients admitted to the intensive care unit (ICU)
Assay: Example 2: prospective, randomized, controlled study, morbidity analysis
Assay type: in vivo, human
Details: for Patients with critical illness polyneuropathy - total no.: EMG-screened patients; for Number of transfusions per patient (median): admission day not taken into account
From the text: All mechanically ventilated, adult patients admitted to the intensive care unit (ICU) were eligible for inclusion.
At baseline, demographic, diagnostic and therapeutic information as well as information necessary to determine severity of illness and utilization of ICU resources were obtained from each patient (Table 1). These included APACHE-II (Acute Physiology and Chronic Health Evaluation) score with higher values indicating more severe illness (see Knaus) and simplified Therapeutic Intervention Scoring System (TISS-28) with higher values indicating a higher number of therapeutic interventions (see Reis Miranda & Keene). APACHE II and TISS scores were calculated daily from ICU admission to discharge or death.
A blood sample was taken upon ICU admission and daily at 06:00 h until discharge from ICU or death. On-admission and daily morning, whole blood glucose level as well as daily maximal and minimal glycemia were analysed. Analyses on the 06:00 h sample also included clinical chemistry, hematology and markers of inflammation.
Blood cultures were taken whenever continously monitored central body temperature acutely rose above 38.5° C. Results from all blood cultures were interpreted by the same blinded investigator. An episode of bacteremia, fungemia or mycobacteremia was defined by the first positive blood culture in a series. To identify a blood stream infection with coagulase-negative staphylocci, identical strains (compared by antibiogram) of microorganisms in two or more positive blood cultures were required (see Weinstein 1997 and Weinstein 1998).
In patients treated in ICU for more than one week, a weekly electromyography (EMG) was performed to screen for Critical Illness Polyneuropathy. EMGs were interpreted by the same electrophysiologist who was blinded for randomization. In case of ICU death, a post-mortem examination was performed to confirm the presumed cause of death.
The primary outcome measure was death from all causes during intensive care. Secondary outcome measures were in-hospital mortality, incidence of prolonged intensive care dependency and need for ICU re-admission, need for vital organ system support comprising mechanical ventilatory support, renal replacement therapy (continuous or intermittent hemofiltration or dialysis), inotropic or vasopressor support, incidence of critical illness polyneuropathy, the degree of inflammation, incidence of blood stream infections and use of antibiotics, transfusion requirements and incidence of hyperbilirubinemia. Furthermore, use of intensive care resources was analysed by cumulative TISS scores. In order to accurately and objectively assess duration of ICU stay, which is often influenced by non-patient related factors such as bed availability on regular wards, patients were defined ‘dischargable from ICU’ when they were no longer in need of vital organ system support and received at least ⅔rd of the caloric need through the normal enteral route or earlier when actually sent to a ward.
Baseline and outcome variables were compared using Student's t-test, Chi-square test and Mann-Whitney-U test, as appropriate. Death odds ratios were calculated using multivariate logistic regression analysis. The effect on time of in-hospital death was assessed by Kaplan-Meier analysis and logrank (Mantel-Cox) significance testing. Patients discharged from the hospital were considered as survivors. Data are presented as percentages, means ±SD or medians (25th-75th percentile) unless indicated otherwise.

[1] = IIS, ICU stay >5 days (N = 451)
[2] = IIS, ICU stay ≤5 days (N = 1097)
[3] = RIS, ICU stay >5 days (N = 451)
[4] = RIS, ICU stay ≤5 days (N = 1097)

Substance: insulin
- >3 days C-reactive protein level above 150 mg/L (%) (IIS): (15%)
- >3 days C-reactive protein level above 150 mg/L - total no. (IIS): 119
- >3 days central body temperature ≤36° C. or […]38° C. (%) (IIS): (21%)
- >3 days central body temperature ≤36° C. or […]38° C. - total no. (IIS): 164
- >3 days white blood cell count ≤4000/μL or […]12000/μL (%) (IIS): (16%)
- >3 days white blood cell count ≤4000/μL or […]12000/μL - total no. (IIS): 121
- Lowest level of hemoglobin (g/dL) when transfused (median) (IIS): 8.3 g/dL
- Number of patients requiring red cell transfusion (%) (IIS): (29%)
- Number of patients requiring red cell transfusion - total no (IIS): 219
- Patients needing dialysis or CVVH (%) (IIS): (4.8%)
- Patients needing dialysis or CVVH - total no (IIS): 37
- Patients on inotropic/vasopressor treatment (%) (IIS): (75%)
- Patients on inotropic/vasopressor treatment - total no. (IIS): 574
- Patients requiring >7 days intensive care (%) (IIS): (20.5%)
- Patients requiring >7 days intensive care - total no (IIS): 157
- Patients requiring >7 days ventilatory support (%) (IIS): (16.9%)
- Patients requiring >7 days ventilatory support - total no. (IIS): 125
- Patients requiring >14 days intensive care (%) (IIS): (11.4%)
- Patients requiring >14 days intensive care - total no (IIS): 87
- Patients requiring >14 days ventilatory support (%) (IIS): (7.7%)
- Patients requiring >14 days ventilatory support - total no. (IIS): 57
- Patients requiring >21 days intensive care (%) (IIS): (6.5%)
- Patients requiring >21 days intensive care - total no (IIS): 50
- Patients requiring >21 days ventilatory support (%) (IIS): (5.0%)
- Patients requiring >21 days ventilatory support - total no. (IIS): 37
- Patients treated with antibiotics for >10 days (%) (IIS): (11.2%)
- Patients treated with antibiotics for >10 days - total no. (IIS): 86
- Patients with an ICU stay of >5 days (IIS): 27%
- Patients with blood stream infections during intensive care (%) (IIS): (4.2%)
- Patients with blood stream infections during intensive care - total no (IIS): 32
- Patients with critical illness polyneuropathy (% of EMG-screened) (IIS): (29%)
- Patients with hyperbilirubinemia (peak bilirubin >2 mg/dL) (%) (IIS): (22%)
- Patients with hyperbilirubinemia (peak bilirubin >2 mg/dL) - total no. (IIS): 171
- Peak plasma creatinine >2.5 mg/dL (%) (IIS): (9.0%)
- Peak plasma creatinine >2.5 mg/dL - total no. (IIS): 69
- Peak plasma urea concentration >150 mg/dL (%) (IIS): (7.7%)
- Peak plasma urea concentration >150 mg/dL - total no. (IIS): 59
- Repetitive (>2) positive EMGs (% of EMG screened) (IIS): (7%)
- Repetitive (>2) positive EMGs - total no (IIS): 11
- >3 days C-reactive protein level above 150 mg/L, NNT (IIS vs RIS): 17
- >3 days C-reactive protein level above 150 mg/L, RRR (%) (IIS vs RIS): 29%
- >3 days abnormal central body temperature, NNT (IIS vs RIS): 20
- >3 days abnormal central body temperature, RRR (%) (IIS vs RIS): 19%
- >3 days abnormal white blood cell count, NNT (IIS vs RIS): 20
- >3 days abnormal white blood cell count, RRR (%) (IIS vs RIS): 24%
- In-hospital stay, difference between the two study groups (IIS vs RIS): not detectably different
- Patients needing dialysis or CVVH, NNT (IIS vs RIS): 29
- Patients needing dialysis or CVVH, RRR (%) (IIS vs RIS): 42%
- Patients on inotropic/vasopressor treatment, RRR (%) (IIS vs RIS): =
- Patients requiring >7 days intensive care, NNT (IIS vs RIS): 17
- Patients requiring >7 days intensive care, RRR (%) (IIS vs RIS): 22%
- Patients requiring >7 days ventilatory support, NNT (IIS vs RIS): 16
- Patients requiring >7 days ventilatory support, RRR (%) (IIS vs RIS): 27%
- Patients requiring >14 days intensive care, NNT (IIS vs RIS): 23
- Patients requiring >14 days intensive care, RRR (%) (IIS vs RIS): 27%
- Patients requiring >14 days ventilatory support, NNT (IIS vs RIS): 22
- Patients requiring >14 days ventilatory support, RRR (%) (IIS vs RIS): 37%
- Patients requiring >21 days intensive care, NNT (IIS vs RIS): 33
- Patients requiring >21 days intensive care, RRR (%) (IIS vs RIS): 32%
- Patients requiring >21 days ventilatory support, NNT (IIS vs RIS): 31
- Patients requiring >21 days ventilatory support, RRR (%) (IIS vs RIS): 39%
- Patients treated with antibiotics for >10 days, NNT (IIS vs RIS): 17
- Patients treated with antibiotics for >10 days, RRR (%) (IIS vs RIS): 35%
- Patients with blood stream infections, NNT (IIS vs RIS): 28
- Patients with blood stream infections, RRR (%) (IIS vs RIS): 46%
- Patients with critical illness polyneuropathy, RRR (%) (IIS vs RIS): 44%
- Patients with hyperbilirubinemia, NNT (IIS vs RIS): 20
- Patients with hyperbilirubinemia, RRR (%) (IIS vs RIS): 19%
- Peak plasma creatinine >2.5 mg/dL, NNT (IIS vs RIS): 31
- Peak plasma creatinine >2.5 mg/dL, RRR (%) (IIS vs RIS): 26%
- Peak plasma urea concentration >150 mg/dL, NNT (IIS vs RIS): 29
- Peak plasma urea concentration >150 mg/dL, RRR (%) (IIS vs RIS): 31%
- Repetitive (>2) positive EMGs, NNT (IIS vs RIS): 8
- Repetitive (>2) positive EMGs, RRR (%) (IIS vs RIS): 63%
- Patients with critical illness polyneuropathy, NNT (IIS vs RIS, among screened patients): 4
- Reduction in median cumulative TISS score (IIS vs RIS, long-stay patients): 20%
- Patients with critical illness polyneuropathy - total no. (IIS): 47
- Cumulative TISS (median) [1]: 431
- Days on ICU (median) [1]: 12 days
- Days on mechanical ventilatory support (median) [1]: 10 days
- Cumulative TISS (median) [2]: 85
- Days on ICU (median) [2]: 2 days
- Days on mechanical ventilatory support (median) [2]: 1 days
- Number of transfusions per patient (median) (IIS): 1
- >3 days C-reactive protein level above 150 mg/L (%) (RIS): (21%)
- >3 days C-reactive protein level above 150 mg/L - total no. (RIS): 162
- >3 days central body temperature ≤36° C. or […]38° C. (%) (RIS): (26%)
- >3 days central body temperature ≤36° C. or […]38° C. - total no. (RIS): 206
- >3 days white blood cell count ≤4000/μL or […]12000/μL (%) (RIS): (21%)
- >3 days white blood cell count ≤4000/μL or […]12000/μL - total no. (RIS): 166
- Lowest level of hemoglobin (g/dL) when transfused (median) (RIS): 8.1 g/dL
- Number of patients requiring red cell transfusion (%) (RIS): (31%)
- Number of patients requiring red cell transfusion - total no (RIS): 243
- Patients needing dialysis or CVVH (%) (RIS): (8.2%)
- Patients needing dialysis or CVVH - total no (RIS): 64
- Patients on inotropic/vasopressor treatment (%) (RIS): (75%)
- Patients on inotropic/vasopressor treatment - total no. (RIS): 586
- Patients requiring >7 days intensive care (%) (RIS): (26.3%)
- Patients requiring >7 days intensive care - total no (RIS): 206
- Patients requiring >7 days ventilatory support (%) (RIS): (23.2%)
- Patients requiring >7 days ventilatory support - total no. (RIS): 175
- Patients requiring >14 days intensive care (%) (RIS): (15.7%)
- Patients requiring >14 days intensive care - total no (RIS): 123
- Patients requiring >14 days ventilatory support (%) (RIS): (12.3%)
- Patients requiring >14 days ventilatory support - total no. (RIS): 93
- Patients requiring >21 days intensive care (%) (RIS): (9.5%)
- Patients requiring >21 days intensive care - total no (RIS): 74
- Patients requiring >21 days ventilatory support (%) (RIS): (8.2%)
- Patients requiring >21 days ventilatory support - total no. (RIS): 62
- Patients treated with antibiotics for >10 days (%) (RIS): (17.1%)
- Patients treated with antibiotics for >10 days - total no. (RIS): 134
- Patients with an ICU stay of >5 days (RIS): 31%
- Patients with blood stream infections during intensive care - total no (RIS): 61
- Patients with critical illness polyneuropathy (% of EMG-screened) (RIS): (52%)
- Patients with hyperbilirubinemia (peak bilirubin >2 mg/dL) (%) (RIS): (27%)
- Patients with hyperbilirubinemia (peak bilirubin >2 mg/dL) - total no. (RIS): 209
- Peak plasma creatinine >2.5 mg/dL (%) (RIS): (12.2%)
- Peak plasma creatinine >2.5 mg/dL - total no. (RIS): 96
- Peak plasma urea concentration >150 mg/dL (%) (RIS): (11.2%)
- Peak plasma urea concentration >150 mg/dL - total no. (RIS): 88
- Repetitive (>2) positive EMGs (% of EMG screened) (RIS): (19%)
- Repetitive (>2) positive EMGs - total no (RIS): 39
- Patients with critical illness polyneuropathy - total no. (RIS): 110
- Cumulative TISS (median) [3]: 536
- Days on ICU (median) [3]: 15 days
- Days on mechanical ventilatory support (median) [3]: 12 days
- Cumulative TISS (median) [4]: 84
- Days on ICU (median) [4]: 2 days
- Days on mechanical ventilatory support (median) [4]: 1 days
- Number of transfusions per patient (median) (RIS): 2
- TISS score on the last day of study (median, IQR) (both study groups (IIS and RIS)): 30 (26-38)
- ICU re-admission rate (similar in both groups (IIS and RIS)): 2.1%
